Experimental data published in US9321737B2, “CDK8-CDK19 selective inhibitors and their use in anti-metastatic and chemopreventative methods for cancer” (SENEX BIOTECHNOLOGY INC, priority 2012, dated 2016).

Columns and labels:
MDA-MB-231 = MDA-MB-231 orthotopic TNBC xenograft; type: in vivo, female SCID mice; settings: 40 mg/kg, 5 daily doses, three rounds
Protocol: Once tumors were formed, mice were randomized into 4 cohorts (n=10) and treated, at 7-10 day intervals, with three rounds of: vehicle (5 daily doses), 1 mg/kg doxorubicin (single dose), 40 mg/kg Senexin B (5 daily doses) or doxorubicin (single dose)+Senexin B (5 daily doses).

[1] = test system: A549 human lung xenograft tumors; experiment: Pretreatment before A549 xenograft injection; type: in vivo, CB-17 SCID mice; settings: 5 daily i.p. 40 mg/kg before s.c. A549 injection; p<0.007 on days 21 and 24
Protocol: Mice were then injected s.c. with 1×10^6 cells of human A549 lung cancer cell line; the tumor cells were injected in the afternoon of the same day when the last dose of treatment was administered in the morning. Starting from day 7 after tumor injection, mice were monitored for tumor formation twice a week, with 3-4 day intervals, until day 24 after tumor injection; tumor volumes were calculated via caliper measurements. By the end of the study, all the mice in both groups developed measurable tumors. […] Each point represents mean and standard deviation of tumor volume within a group of 10 mice.

MDA-MB-468 = experiment: Breast carcinoma cell growth, MTT, MDA-MB-468; type: cell-based; settings: five days
>450 kinases = experiment: KinomeScan ATP pocket binding inhibition, rest of panel; settings: 2,000 nM
From the text: (§1) (16) The results of this analysis are presented in FIGS. 6A-B in the form of an evolutionary dendrogram of the kinase family, where kinase inhibition is represented by red circles, the size of which represents the magnitude of the inhibition.

MDA-MB-157 = experiment: Breast carcinoma cell growth, MTT, MDA-MB-157; type: cell-based; settings: five days
4T1 = experiment: Breast carcinoma cell growth, MTT, 4T1; type: cell-based; settings: five days
CDK8 = CDK8 (Homo sapiens, UniProt P49336); experiment: In vitro CDK8 kinase activity inhibition (ProQinase assay kit); settings: read-out: IC50, inhibition of CDK8 kinase activity, different assays
Sequence of CDK8 (P49336 whole entry): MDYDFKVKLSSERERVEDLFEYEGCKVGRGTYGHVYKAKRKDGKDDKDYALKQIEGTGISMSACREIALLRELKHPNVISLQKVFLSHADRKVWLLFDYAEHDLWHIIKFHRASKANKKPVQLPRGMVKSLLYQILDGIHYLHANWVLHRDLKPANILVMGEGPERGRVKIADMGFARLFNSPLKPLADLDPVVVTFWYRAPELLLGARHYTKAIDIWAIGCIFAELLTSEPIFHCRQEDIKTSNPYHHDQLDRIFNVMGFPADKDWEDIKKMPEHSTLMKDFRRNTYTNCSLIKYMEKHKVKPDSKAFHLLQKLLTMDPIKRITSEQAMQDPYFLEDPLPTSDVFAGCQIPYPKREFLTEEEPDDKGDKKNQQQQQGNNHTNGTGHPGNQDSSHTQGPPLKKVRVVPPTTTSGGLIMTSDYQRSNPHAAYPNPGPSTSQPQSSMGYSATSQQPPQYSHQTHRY

CDK19 = CDK19 (Homo sapiens, UniProt Q9BWU1); experiment: KinomeScan ATP pocket binding inhibition, CDK19; settings: 2,000 nM
Sequence of CDK19 (Q9BWU1 whole entry): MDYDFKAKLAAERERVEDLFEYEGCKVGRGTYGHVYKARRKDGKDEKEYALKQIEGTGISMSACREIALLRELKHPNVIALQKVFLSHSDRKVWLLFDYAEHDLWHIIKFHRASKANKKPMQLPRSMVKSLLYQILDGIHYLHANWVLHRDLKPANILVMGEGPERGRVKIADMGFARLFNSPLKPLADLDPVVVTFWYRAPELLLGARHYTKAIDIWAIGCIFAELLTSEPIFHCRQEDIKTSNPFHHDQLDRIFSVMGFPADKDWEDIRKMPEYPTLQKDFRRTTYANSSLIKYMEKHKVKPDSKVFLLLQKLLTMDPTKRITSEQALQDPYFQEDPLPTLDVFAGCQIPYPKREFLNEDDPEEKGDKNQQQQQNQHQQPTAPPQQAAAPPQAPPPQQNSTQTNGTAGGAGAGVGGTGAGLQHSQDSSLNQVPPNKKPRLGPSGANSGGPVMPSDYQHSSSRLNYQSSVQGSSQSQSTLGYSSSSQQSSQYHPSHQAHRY
From the text: as §1

YSK4 = target: T1, YSK4 (Homo sapiens, UniProt Q56UN5); experiment: KinomeScan ATP pocket binding inhibition, YSK4; settings: 2,000 nM
T1 construct: purchased KinomeScan, a division of Ambit Biosciences
T1 sequence (Q56UN5 1-1328): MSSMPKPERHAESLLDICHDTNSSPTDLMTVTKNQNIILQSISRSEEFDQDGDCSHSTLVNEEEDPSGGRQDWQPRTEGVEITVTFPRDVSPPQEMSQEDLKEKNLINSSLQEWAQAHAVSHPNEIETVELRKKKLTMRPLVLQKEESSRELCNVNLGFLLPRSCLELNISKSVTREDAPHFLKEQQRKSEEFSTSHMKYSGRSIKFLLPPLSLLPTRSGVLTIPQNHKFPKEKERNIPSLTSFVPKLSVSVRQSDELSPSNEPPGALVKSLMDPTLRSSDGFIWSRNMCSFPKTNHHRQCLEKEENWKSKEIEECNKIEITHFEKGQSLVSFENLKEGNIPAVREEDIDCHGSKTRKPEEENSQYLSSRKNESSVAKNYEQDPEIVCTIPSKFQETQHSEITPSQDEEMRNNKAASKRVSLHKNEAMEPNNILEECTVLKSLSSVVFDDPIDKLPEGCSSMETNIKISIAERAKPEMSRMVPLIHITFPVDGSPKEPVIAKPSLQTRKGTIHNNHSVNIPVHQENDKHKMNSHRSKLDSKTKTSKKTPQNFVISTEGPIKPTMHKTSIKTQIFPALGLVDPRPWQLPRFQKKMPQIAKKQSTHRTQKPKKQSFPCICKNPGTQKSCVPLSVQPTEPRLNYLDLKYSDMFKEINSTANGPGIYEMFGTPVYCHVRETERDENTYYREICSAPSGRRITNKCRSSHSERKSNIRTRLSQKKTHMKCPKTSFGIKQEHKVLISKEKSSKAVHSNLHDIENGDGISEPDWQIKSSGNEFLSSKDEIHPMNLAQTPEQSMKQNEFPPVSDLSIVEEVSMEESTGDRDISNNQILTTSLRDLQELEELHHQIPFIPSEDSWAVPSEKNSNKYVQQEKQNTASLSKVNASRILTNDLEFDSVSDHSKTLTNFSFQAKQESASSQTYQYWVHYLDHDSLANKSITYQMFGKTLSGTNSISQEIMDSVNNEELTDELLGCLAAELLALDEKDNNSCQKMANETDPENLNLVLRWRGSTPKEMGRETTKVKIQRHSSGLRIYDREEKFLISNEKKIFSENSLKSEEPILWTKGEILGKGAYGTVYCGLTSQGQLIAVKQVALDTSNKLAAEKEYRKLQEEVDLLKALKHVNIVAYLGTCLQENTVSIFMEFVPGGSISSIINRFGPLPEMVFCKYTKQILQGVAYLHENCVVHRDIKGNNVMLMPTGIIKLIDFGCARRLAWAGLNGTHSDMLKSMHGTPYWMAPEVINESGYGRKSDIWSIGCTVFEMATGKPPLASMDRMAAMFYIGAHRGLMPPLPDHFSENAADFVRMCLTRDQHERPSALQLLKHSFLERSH
From the text: as §1

[2] = Pharmacokinetics in rat plasma; type: in vivo; settings: i.p. 40 mg/kg
[3] = test system: MDA-MB-468 TNBC tumor invasion; experiment: Histological analysis of MDA-MB-468 tumor invasion (H&E); type: in vivo, female nude mice; settings: tumors from FIG. 15B experiment
From the text: At the end of the experiment shown in FIG. 15B, mice were sacrificed, tumors were removed, formalin fixed, sectioned and processed for histological analysis after H&E staining.

With CN1CCN(C(=O)c2ccc3cc(CCNc4ncnc5ccc(C#N)cc45)ccc3c2)CC1 [SNX2-1-165] as the compound, how does the “body weight difference from control” value (MDA-MB-231) read?
Its value is “no significant weight difference from the control”.

What about the “tumor growth (tumor volume) after pretreatment” value [1] of the same compound?
Its value is “significantly slower tumor growth”.

What about the “growth inhibition, MDA-MB-468” value (MDA-MB-468) of the same compound?
Its value is “dose-dependent growth inhibition”.

And the “% inhibition of all other kinases in the panel” value (>450 kinases)?
The value was no more than 50%.

What about the “growth inhibition, MDA-MB-157” value (MDA-MB-157) of the same compound?
Its value is “dose-dependent growth inhibition”.

And the “growth inhibition, 4T1” value (4T1)?
The value was “not inhibited except for the highest concentrations”.

And the IC50 (CDK8)?
Its IC50 is 24 to 50 nM.

What about the “% inhibition of CDK19” value (CDK19) of the same compound?
The value was 98.6%.

And the “% inhibition of YSK4” value (YSK4)?
The value was 59%.

What about the area under the curve (AUC) [2] of the same compound?
Its area under the curve (AUC) is 14100 ng·h/mL.

And the “invasive or non-invasive tumor growth” value [3]?
The value was “non-invasive”.
